According to patent publication US12240844B2 (Voronoi, Inc., priority 2019, dated 2025):
Each block holds one molecule with its values, some of them ahead of it.

What was measured:
Assay type in all cases: biochemical
LRRK2 (G2019S) = LRRK2 (G2019S) (Homo sapiens, UniProt Q5S007, G2019S); experiment: LRRK2 G2019S enzyme inhibition, ADP-Glo kinase assay; design: purchased SignalChem L10-12GG
Procedure, shortened: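 Purified human LRRK2 G2019S (16 ng) with 25 μM ATP and 0.2 μg substrate, 2 h at 25° C in 40 mM Tris-HCl pH 7.4, 20 mM MgCl2, 0.5 mg/ml BSA, 50 μM DTT; compound at 12 final concentrations from 50 μM downward. ADP-Glo luminescence versus solvent control gave IC50 (nM).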

LRRK2 = LRRK2 (Homo sapiens, UniProt Q5S007); experiment: LRRK2 enzyme inhibition, ADP-Glo kinase assay; design: purchased Invitrogen PR8604B
LRRK2, sequence (Q5S007 970-2527 limits assumed): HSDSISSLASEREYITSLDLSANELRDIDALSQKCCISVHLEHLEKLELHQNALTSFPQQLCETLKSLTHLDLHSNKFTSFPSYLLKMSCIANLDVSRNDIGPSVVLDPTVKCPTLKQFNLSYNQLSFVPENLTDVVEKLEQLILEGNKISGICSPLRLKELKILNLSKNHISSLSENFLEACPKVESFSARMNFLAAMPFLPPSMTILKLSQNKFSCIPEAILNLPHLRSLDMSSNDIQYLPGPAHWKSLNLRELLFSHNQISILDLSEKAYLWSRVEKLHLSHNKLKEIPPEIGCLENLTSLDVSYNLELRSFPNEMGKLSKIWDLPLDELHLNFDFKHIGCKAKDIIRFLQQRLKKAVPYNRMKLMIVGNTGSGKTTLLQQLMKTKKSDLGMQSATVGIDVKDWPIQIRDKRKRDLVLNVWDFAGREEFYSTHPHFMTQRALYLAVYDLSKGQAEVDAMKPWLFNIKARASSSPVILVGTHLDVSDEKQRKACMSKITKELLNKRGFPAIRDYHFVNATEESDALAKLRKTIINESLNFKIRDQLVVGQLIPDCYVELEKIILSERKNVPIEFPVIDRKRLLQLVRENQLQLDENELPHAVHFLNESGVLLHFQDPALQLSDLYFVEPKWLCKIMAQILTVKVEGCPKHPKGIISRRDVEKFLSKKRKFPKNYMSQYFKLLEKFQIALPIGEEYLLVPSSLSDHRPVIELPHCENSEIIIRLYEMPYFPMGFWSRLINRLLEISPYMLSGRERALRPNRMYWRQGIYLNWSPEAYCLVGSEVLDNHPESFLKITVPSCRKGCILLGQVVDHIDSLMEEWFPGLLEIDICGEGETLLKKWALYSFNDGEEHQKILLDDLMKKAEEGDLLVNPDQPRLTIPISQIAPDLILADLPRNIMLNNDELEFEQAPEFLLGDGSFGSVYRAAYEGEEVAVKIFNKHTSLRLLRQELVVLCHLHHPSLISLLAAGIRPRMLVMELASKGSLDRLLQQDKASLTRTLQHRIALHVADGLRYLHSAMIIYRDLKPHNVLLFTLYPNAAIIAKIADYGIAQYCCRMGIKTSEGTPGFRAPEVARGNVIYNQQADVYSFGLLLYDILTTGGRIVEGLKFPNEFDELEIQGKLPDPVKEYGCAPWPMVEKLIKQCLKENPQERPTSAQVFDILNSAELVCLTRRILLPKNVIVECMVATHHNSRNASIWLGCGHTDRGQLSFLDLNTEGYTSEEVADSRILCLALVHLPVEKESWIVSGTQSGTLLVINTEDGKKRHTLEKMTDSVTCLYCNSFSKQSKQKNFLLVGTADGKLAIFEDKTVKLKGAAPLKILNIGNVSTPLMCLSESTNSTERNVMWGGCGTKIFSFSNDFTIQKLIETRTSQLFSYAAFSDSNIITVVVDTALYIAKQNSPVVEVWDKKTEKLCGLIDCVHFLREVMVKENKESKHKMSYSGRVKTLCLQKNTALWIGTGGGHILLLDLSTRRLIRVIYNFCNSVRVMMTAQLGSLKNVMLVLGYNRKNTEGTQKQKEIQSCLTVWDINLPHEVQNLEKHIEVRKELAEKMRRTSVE
Procedure, shortened: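 Purified human LRRK2 (25 ng) in 40 mM Tris-HCl pH7.4, 20 mM MgCl2, 0.5 mg/ml BSA, 50 μM DTT with 10 μM ATP and substrate ([…]), 2 h at 25° C. Final compound 50 to 0.000001024 μM, 12-point dilution. ADP-Glo luminescence vs solvent control; IC50 (nM).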

human GST-CLK1 (129-end) = biological target: T1, human GST-CLK1 (129-end) (Homo sapiens, UniProt P49759); experiment: GST-CLK1 enzyme inhibition, ADP-Glo kinase assay; details: ATP 10 uM
T1 construct: purified human GST-CLK1 (129-end, Signalchem) enzyme; GST; purchased Signalchem
T1 sequence (P49759 129-484 limits assumed): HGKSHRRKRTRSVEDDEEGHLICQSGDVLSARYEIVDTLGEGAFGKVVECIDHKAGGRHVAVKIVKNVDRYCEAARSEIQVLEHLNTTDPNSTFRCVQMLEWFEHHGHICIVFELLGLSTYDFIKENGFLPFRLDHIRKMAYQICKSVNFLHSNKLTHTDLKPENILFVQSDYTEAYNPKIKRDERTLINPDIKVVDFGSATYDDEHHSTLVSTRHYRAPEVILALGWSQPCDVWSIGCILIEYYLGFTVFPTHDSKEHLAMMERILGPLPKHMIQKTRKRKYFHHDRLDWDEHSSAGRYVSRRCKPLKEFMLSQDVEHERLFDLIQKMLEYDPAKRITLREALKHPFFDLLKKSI
Procedure, shortened: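 GST-CLK1 (129-end, 3 ng) reacted with 10 uM ATP and substrate in 40 mM Tris-HCl pH 7.4, 20 mM MgCl2, 0.5 mg/mL BSA, 50 uM DTT, 1 h at 25° C. ADP-Glo luminescence normalised to solvent control; IC50 from triplicate data.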

[1] = biological target: T2, human GST-DYRK1A (full length) (Homo sapiens, UniProt Q13627); experiment: GST-DYRK1A enzyme inhibition, ADP-Glo kinase assay; details: read-out: DYRK1 IC50
T2 construct: purified human GST-DYRK1A (full length, Thermo scientifics) enzyme; GST; purchased Thermo scientifics
Procedure, shortened: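 Full-length human GST-DYRK1A (10 ng) incubated with 10 uM ATP and specific substrate for 1 h at 25° C in 40 mM Tris-HCl pH 7.4, 20 mM MgCl2, 0.5 mg/mL BSA, 50 uM DTT. ADP formation read by ADP-Glo luminescence; IC50 (nM) versus solvent control, triplicate.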

LRRK2 (G2019S), sequence (Q5S007 970-2527 G2019S limits assumed): as the sequence (Q5S007 970-2527 limits assumed) above, with G1050S counted along it

SMILES: COc1cc(S(C)(=O)=O)ccc1Nc1cc(NC2CC2)c2c(C#N)c[nH]c2n1 [Example 122, 4-(cyclopropylamino)-6-((2-methoxy-4-(methylsulfonyl)phenyl)amino)-1H-pyrrolo[2,3-b]pyridine-3-carbonitrile]
- IC50 (LRRK2 (G2019S)): 101 to 300 nM
- IC50 (LRRK2): < 100 nM
- IC50 (human GST-CLK1 (129-end)): 301 to 1000 nM
- IC50 [1]: 301 to 1000 nM

SMILES: CCNc1cc(Nc2ccc(S(C)(=O)=O)cc2OC)nc2[nH]cc(C#N)c12 [Example 124, 4-(ethylamino)-6-((2-methoxy-4-(methylsulfonyl)phenyl)amino)-1H-pyrrolo[2,3-b]pyridine-3-carbonitrile]
- IC50 (LRRK2 (G2019S)): 101 to 300 nM
- IC50 (LRRK2): < 100 nM
- IC50 (human GST-CLK1 (129-end)): 301 to 1000 nM
- IC50 [1]: 301 to 1000 nM

SMILES: CNc1cc(Nc2ccc(S(C)(=O)=O)cc2OC)nc2[nH]cc(C#N)c12 [Example 123]
- IC50 (LRRK2 (G2019S)): < 100 nM
- IC50 (LRRK2): < 100 nM
- IC50 (human GST-CLK1 (129-end)): 301 to 1000 nM
- IC50 [1]: 301 to 1000 nM

SMILES: COCCNc1cc(Nc2ccc(S(C)(=O)=O)cc2OC)nc2[nH]cc(C(F)(F)F)c12 [Example 201, N^6-(2-methoxy-4-(methylsulfonyl)phenyl)-N^4-(2-methoxyethyl)-3-(trifluoromethyl)-1H-pyrrolo[2,3-b]pyridine-4,6-diamine]
- IC50 (LRRK2 (G2019S)): 301 to 1000 nM
- IC50 (LRRK2): 101 to 300 nM
- IC50 (human GST-CLK1 (129-end)): 301 to 1000 nM
- IC50 [1]: 301 to 1000 nM

SMILES: CCCNc1cc(Nc2ccc(S(C)(=O)=O)cc2OC)nc2[nH]cc(C(F)(F)F)c12 [Example 200, N^6-(2-methoxy-4-(methylsulfonyl)phenyl)-N^4-propyl-3-(trifluoromethyl)-1H-pyrrolo[2,3-b]pyridine-4,6-diamine]
- IC50 (LRRK2 (G2019S)): 301 to 1000 nM
- IC50 (LRRK2): 301 to 1000 nM
- IC50 (human GST-CLK1 (129-end)): 301 to 1000 nM
- IC50 [1]: 301 to 1000 nM

SMILES: COc1cc(S(=O)(=O)N2CCOCC2)ccc1Nc1cc(NC2CCCCC2)c2c(Cl)c[nH]c2n1 [Example 70, 3-chloro-N^4-cyclohexyl-N^6-(2-methoxy-4-(morpholinosulfonyl)phenyl)-1H-pyrrolo[2,3-b]pyridine-4,6-diamine]
- IC50 (LRRK2 (G2019S)): 301 to 1000 nM
- IC50 (LRRK2): 301 to 1000 nM
- IC50 (human GST-CLK1 (129-end)): 301 to 1000 nM
- IC50 [1]: 301 to 1000 nM

SMILES: CCNc1cc(Nc2ccc(S(=O)(=O)N3CCOCC3)cc2OC)nc2[nH]cc(Cl)c12 [Example 65, 3-chloro-N^4-ethyl-N^6-(2-methoxy-4-(morpholinosulfonyl)phenyl)-1H-pyrrolo[2,3-b]pyridine-4,6-diamine]
- IC50 (LRRK2 (G2019S)): 301 to 1000 nM
- IC50 (LRRK2): 101 to 300 nM
- IC50 (human GST-CLK1 (129-end)): 301 to 1000 nM
- IC50 [1]: 301 to 1000 nM

SMILES: COc1cc(S(C)(=O)=O)ccc1Nc1cc(NCCS(C)(=O)=O)c2c(C(F)(F)F)c[nH]c2n1 [Example 193, N^6-(2-methoxy-4-(methylsulfonyl)phenyl)-N^4-(2-(methylsulfonyl)ethyl)-3-(trifluoromethyl)-1H-pyrrolo[2,3-b]pyridine-4,6-diamine]
- IC50 (LRRK2 (G2019S)): 301 to 1000 nM
- IC50 (LRRK2): 301 to 1000 nM
- IC50 (human GST-CLK1 (129-end)): < 100 nM
- IC50 [1]: < 100 nM

SMILES: CNc1cc(Nc2ccc(S(=O)(=O)N3CCOCC3)cc2OC)nc2[nH]cc(C(F)(F)F)c12 [Example 177, N^6-(2-methoxy-4-(morpholinosulfonyl)phenyl)-N^4-methyl-3-(trifluoromethyl)-1H-pyrrolo[2,3-b]pyridine-4,6-diamine]
- IC50 (LRRK2 (G2019S)): 301 to 1000 nM
- IC50 (LRRK2): 301 to 1000 nM
- IC50 (human GST-CLK1 (129-end)): 301 to 1000 nM
- IC50 [1]: 301 to 1000 nM

SMILES: COc1cc(S(C)(=O)=O)ccc1Nc1cc(C2CC2)c2c(C#N)c[nH]c2n1 [Example 229, 4-cyclopropyl-6-((2-methoxy-4-(methylsulfonyl)phenyl)amino)-1H-pyrrolo[2,3-b]pyridine-3-carbonitrile]
- IC50 (LRRK2 (G2019S)): 301 to 1000 nM
- IC50 (LRRK2): 101 to 300 nM
- IC50 (human GST-CLK1 (129-end)): 301 to 1000 nM
- IC50 [1]: 301 to 1000 nM

SMILES: CNc1cc(Nc2ccc(S(C)(=O)=O)cc2OC)nc2[nH]ccc12 [Example 25, N^6-(2-methoxy-4-(methylsulfonyl)phenyl)-N^4-methyl-1H-pyrrolo[2,3-b]pyridine-4,6-diamine]
- IC50 (LRRK2 (G2019S)): < 100 nM
- IC50 (LRRK2): 101 to 300 nM
- IC50 (human GST-CLK1 (129-end)): 301 to 1000 nM
- IC50 [1]: 301 to 1000 nM

SMILES: COc1cc(S(=O)(=O)N2CCOCC2)ccc1Nc1cc(NC2CCC2)c2c(Cl)c[nH]c2n1 [Example 69, 3-chloro-N^4-cyclobutyl-N^6-(2-methoxy-4-(morpholinosulfonyl)phenyl)-1H-pyrrolo[2,3-b]pyridine-4,6-diamine]
- IC50 (LRRK2 (G2019S)): 301 to 1000 nM
- IC50 (LRRK2): 301 to 1000 nM
- IC50 (human GST-CLK1 (129-end)): 301 to 1000 nM
- IC50 [1]: 301 to 1000 nM

More lines, now with the values ahead:

- IC50 (LRRK2 (G2019S)): < 100 nM
- IC50 (LRRK2): < 100 nM
- IC50 (human GST-CLK1 (129-end)): 101 to 300 nM
- IC50 [1]: 301 to 1000 nM
SMILES: N#Cc1c[nH]c2nc(Nc3ccc(C(=O)N4CCOCC4)c4c3OCCO4)cc(NC3CC3)c12 [Example 111, 4-(cyclopropylamino)-6-((8-(morpholine-4-carbonyl)-2,3-dihydrobenzo[b] [1,4]dioxin-5-yl)amino)-1H-pyrrolo[2,3-b]pyridine-3-carbonitrile]

- IC50 (LRRK2 (G2019S)): < 100 nM
- IC50 (LRRK2): < 100 nM
- IC50 (human GST-CLK1 (129-end)): 301 to 1000 nM
- IC50 [1]: 301 to 1000 nM
SMILES: CNc1cc(Nc2ccc(C(=O)N3CCOCC3)c3c2OCCO3)nc2[nH]cc(C#N)c12 [Example 106, 4-(methylamino)-6-((8-(morpholine-4-carbonyl)-2,3-dihydrobenzo[b] [1,4]dioxin-5-yl)amino)-1H-pyrrolo[2,3-b]pyridine-3-carbonitrile]

- IC50 (LRRK2 (G2019S)): < 100 nM
- IC50 (LRRK2): < 100 nM
- IC50 (human GST-CLK1 (129-end)): < 100 nM
- IC50 [1]: 301 to 1000 nM
SMILES: COCCNc1cc(Nc2ccc(C(=O)N3CCC(N4CCOCC4)CC3)c3c2OCCO3)nc2[nH]cc(C#N)c12 [Example 118, 4-((2-methoxyethyl)amino)-6-((8-(4-morpholinopiperidine-1-carbonyl)-2,3-dihydrobenzo [b] [1,4]dioxin-5-yl)amino)-1H-pyrrolo[2,3-b]pyridine-3-carbonitrile]

- IC50 (LRRK2 (G2019S)): < 100 nM
- IC50 (LRRK2): < 100 nM
- IC50 (human GST-CLK1 (129-end)): 301 to 1000 nM
- IC50 [1]: 301 to 1000 nM
SMILES: CCNc1cc(Nc2ccc(C(=O)N3CCOCC3)c3c2OCCO3)nc2[nH]cc(C#N)c12 [Example 107, 4-(ethylamino)-6-((8-(morpholine-4-carbonyl)-2,3-dihydrobenzo[b] [1,4]dioxin-5-yl)amino)-1H-pyrrolo[2,3-b]pyridine-3-carbonitrile]

- IC50 (LRRK2 (G2019S)): < 100 nM
- IC50 (LRRK2): < 100 nM
- IC50 (human GST-CLK1 (129-end)): < 100 nM
- IC50 [1]: < 100 nM
SMILES: COCCNc1cc(Nc2ccc(C(=O)N3CCOCC3)c3c2OCCO3)nc2[nH]cc(C#N)c12 [Example 109, 4-((2-methoxyethyl)amino)-6-((8-(morpholine-4-carbonyl)-2,3-dihydrobenzo[b] [1,4]dioxin-5-yl)amino)-1H-pyrrolo[2,3-b]pyridine-3-carbonitrile]

- IC50 (LRRK2 (G2019S)): < 100 nM
- IC50 (LRRK2): < 100 nM
- IC50 (human GST-CLK1 (129-end)): < 100 nM
- IC50 [1]: < 100 nM
SMILES: CCCNc1cc(Nc2ccc(C(=O)N3CCC(N4CCOCC4)CC3)c3c2OCCO3)nc2[nH]cc(C#N)c12 [Example 114, 6-((8-(4-morpholinopiperidine-1-carbonyl)-2,3-dihydrobenzo [b] [1,4]dioxin-5-yl)amino)-4-(propylamino)-1H-pyrrolo[2,3-b]pyridine-3-carbonitrile]

- IC50 (LRRK2 (G2019S)): < 100 nM
- IC50 (LRRK2): < 100 nM
- IC50 (human GST-CLK1 (129-end)): 301 to 1000 nM
- IC50 [1]: 301 to 1000 nM
SMILES: COCCNc1cc(Nc2ccc(C(=O)N3CCOCC3)c3c2OCCO3)nc2[nH]cc(Cl)c12 [Example 62, (8-((3-chloro-4-((2-methoxyethyl)amino)-1H-pyrrolo[2,3-b]pyridin-6-yl)amino)-2,3-dihydrobenzo[b] [1,4]dioxin-5-yl)(morpholino) methanone]

- IC50 (LRRK2 (G2019S)): < 100 nM
- IC50 (LRRK2): < 100 nM
- IC50 (human GST-CLK1 (129-end)): < 100 nM
- IC50 [1]: < 100 nM
SMILES: CCNc1cc(Nc2ccc(C(=O)N3CCOCC3)c3c2OCC3)nc2[nH]cc(C(F)(F)F)c12 [Example 89, (7-((4-(ethylamino)-3-(trifluoromethyl)-1H-pyrrolo[2,3-b]pyridin-6-yl)amino)-2,3-dihydrobenzofuran-4-yl)(morpholino) methanone]

- IC50 (LRRK2 (G2019S)): 101 to 300 nM
- IC50 (LRRK2): < 100 nM
- IC50 (human GST-CLK1 (129-end)): < 100 nM
- IC50 [1]: 301 to 1000 nM
SMILES: O=C(c1ccc(Nc2cc(NC3CC3)c3c(C(F)(F)F)c[nH]c3n2)c2c1OCCO2)N1CCOCC1 [Example 155, (8-((4-(cyclopropylamino)-3-(trifluoromethyl)-1H-pyrrolo[2,3-b]pyridin-6-yl)amino)-2,3-dihydrobenzo[b] [1,4]dioxin-5-yl)(morpholino) methanone 2,2,2-trifluoroacetate]

- IC50 (LRRK2 (G2019S)): < 100 nM
- IC50 (LRRK2): < 100 nM
- IC50 (human GST-CLK1 (129-end)): < 100 nM
- IC50 [1]: < 100 nM
SMILES: CS(=O)(=O)CCNc1cc(Nc2ccc(C(=O)N3CCC(N4CCOCC4)CC3)c3c2OCCO3)nc2[nH]cc(C(F)(F)F)c12 [Example 165, (8-((4-((2-(methylsulfonyl)ethyl)amino)-3-(trifluoromethyl)-1H-pyrrolo[2,3-b]pyridin-6-yl)amino)-2,3-dihydrobenzo[b] [1,4]dioxin-5-yl)(4-morpholinopiperidin-1-yl)methanone]
